Counter-ions that a name gives are not always drawn. Like-named read-outs stand apart in the source and are kept apart here.
Legend:
[1] = system: Ebola virus; assay: microbe, parasite or virus in culture; format: cell-based, Ebolavirus (EBOV)
[2] = system: Ebola virus; assay: microbe, parasite or virus in culture; format: cell-based, Ebolavirus (EBOV); parameters: Max Effect HepG2: unit not given here; conditions: for Emax: HepG2, read-out: Max Effect HepG2
[3] = Zaire ebolavirus, Vero, read-out: Max Effect
[4] = Zaire ebolavirus, Vero, read-out: Max Effect Vero
[5] = Zaire ebolavirus, Vero, read-out: IC50 (μM) Vero
[6] = Zaire ebolavirus, HepG2, read-out: IC50 (μM) HepG2

Molecule | Emax [1, 3] [%] | Emax [1, 4] [%] | Emax ([2]; Zaire ebolavirus) [%] | IC50 [1, 5] [µM] | IC50 [2, 6] [µM] | IC50 ([1]; Zaire ebolavirus, Vero) [µM] | further results
O=C1CCc2ccc(OCCCCN3CCN(c4cccc(Cl)c4Cl)CC3)cc2N1 [Aripiprazole] | 80.7 | 53 | 94.7 | – | – | – | –
CCN(CC)CCOc1ccc(/C(=C(\Cl)c2ccccc2)c2ccccc2)cc1 [Clomiphene Citrate] | 91.2 | 96.4 | 93.4 | – | – | – | –
CN(C)CCOc1ccc(/C(=C(/CCCl)c2ccccc2)c2ccccc2)cc1 [Toremifene Citrate] | – | 93.5 | 94.9 | 0.16 | 0.026 | – | IC50 [1]: > 1 µM; Max Effect [1]: 0.900
CCN(CC)CCCC(C)Nc1c2ccc(Cl)cc2nc2ccc(OC)cc12 (centres unmarked) [Quinacrine Dihydrochloride] | 77.9 | 92.3 | 86.2 | 5.7 | 1 | 9.5 | –
CN(C)CCCN1c2ccccc2CCc2ccc(Cl)cc21 [Clomipramine Hydrochloride] | 58.5 | 96.1 | 89.7 | – | – | – | –
OCCN1CCN(CC/C=C2/c3ccccc3Sc3ccc(C(F)(F)F)cc32)CC1 [Flupentixol Dihydrochloride] | – | – | – | – | – | – | IC50 ([1]; read-out: IC50): 3.8 µM; IC50 ([1]; read-out: IC50 (μM) Vero): 5.7 µM; IC50 ([2]; read-out: IC50 (μM) HepG2): 1.6 µM
O=C1C(O)=C([C@H]2CC[C@H](c3ccc(Cl)cc3)CC2)C(=O)c2ccccc21 [Atovaquone] | 90 | 73.9 | 23.1 | 0.44 | – | < 1 | –
CC(C)COCC(CN(Cc1ccccc1)c1ccccc1)N1CCCC1 (centres unmarked) [Bepridil Hydrochloride Monohydrate] | 72 | 97 | 91.2 | 5.1 | 3.2 | 3.1 | –
CO[C@H]1C[C@H](O[C@H]2CC[C@]3(C=O)[C@H]4CC[C@]5(C)[C@@H](C6=CC(=O)OC6)CC[C@]5(O)[C@@H]4CC[C@]3(O)C2)O[C@H](C)[C@H]1O [K-Strophanthin] | 90 | 74.2 | 86.7 | 0.035 | 0.021 | < 0.5 | –
Fc1ccc([C@@H]2CCNC[C@H]2COc2ccc3c(c2)OCO3)cc1 [Paroxetine Hydrochloride Hemihydrate] | 82 | 96 | 92 | 7.4 | 1.4 | 9.3 | –
CN[C@H]1CC[C@@H](c2ccc(Cl)c(Cl)c2)c2ccccc21 [Sertraline Hydrochloride] | 41.8 | 96.2 | 95 | – | – | – | –
Nc1ncn([C@@H]2O[C@H](CO)[C@@H](O)[C@H]2O)c(=O)n1 [Azacitidine] | 59.5 | 74.6 | 89.9 | 8.9 | 10 | 5 | –
Cl.Cl.OCCN1CCN(CCC=C2c3ccccc3Sc3ccc(C(F)(F)F)cc32)CC1 (mixture of isomers) [Flupentixol Dihydrochloride] | – | – | – | – | – | – | Max Effect [1]: 0.660; Max Effect Vero [1]: 0.959; Max Effect HepG2 [2]: 0.744
O=c1[nH]c2ccccc2n1C1CCN(CCCC(c2ccc(F)cc2)c2ccc(F)cc2)CC1 [Pimozide] | 68.5 | 96.8 | 91 | 3.1 | 1.7 | 4.8 | –
CCC(C)(C)C(=O)O[C@H]1C[C@@H](C)C=C2C=C[C@H](C)[C@H](CC[C@@H]3C[C@@H](O)CC(=O)O3)[C@H]21 [Simvastatin] | 69 | 55.7 | 35.3 | 20 | – | 2 | –
CC(=O)c1ccc2c(c1)N(CCCN1CCC(CCO)CC1)c1ccccc1S2 [Piperacetazine] | – | – | – | – | – | – | Max Effect [1]: 0.641; Max Effect Vero [1]: 0.962; IC50 ([1]; read-out: IC50): 6.6 µM; IC50 ([1]; read-out: IC50 (μM) Vero): 12 µM; Max Effect HepG2 [2]: 0.954; IC50 ([2]; read-out: IC50 (μM) HepG2): 3.3 µM
COc1ccc(CN2CCN(C(c3ccc(F)cc3)c3ccc(F)cc3)CC2)c(OC)c1OC [Lomerizine Dihydrochloride] | 66.5 | 89.9 | 91.8 | 11 | 2.1 | 10.1 | –

Molecule | Emax [1, 3] [%] | Emax [1, 4] [%] | Emax ([2]; Zaire ebolavirus) [%] | IC50 [1, 5] [µM] | IC50 [2, 6] [µM] | IC50 ([1]; Zaire ebolavirus, Vero) [µM] | further results
CN1CCN(CCCN2c3ccccc3Sc3ccc(Cl)cc32)CC1 [Prochlorperazine Edisylate] | 89 | 96.3 | 94.7 | – | – | – | –
CN1[C@@H]2CC[C@H]1C[C@@H](OC(c1ccccc1)c1ccccc1)C2 [Benztropine Mesylate] | 63.3 | 89.9 | 94.3 | – | – | – | –
CCN(CC)CCNc1ccc(CO)c2sc3ccccc3c(=O)c12 [Hycanthone] | 59.7 | 96.8 | 96.2 | 11 | 6 | 10.4 | –
Cc1nc(Nc2ncc(C(=O)Nc3c(C)cccc3Cl)s2)cc(N2CCN(CCO)CC2)n1 [Dasatinib] | 42.8 | 64.2 | 94.1 | 16 | 4.2 | – | –
COc1ccc(CCN2CCC(Nc3nc4ccccc4n3Cc3ccc(F)cc3)CC2)cc1 [Astemizole] | 83.5 | 96.5 | 91.4 | – | – | – | –
COc1c(C)c2c(c(O)c1C/C=C(\C)CCC(=O)OCCN1CCOCC1)C(=O)OC2 [Mycophenolate Mofetil] | 90 | 43.8 | 88.6 | – | 0.29 | < 1 | –
CNCCCC12CCC(c3ccccc31)c1ccccc12 [Maprotiline Hydrochloride] | 79.5 | 98.6 | 92.5 | – | – | – | –
Vinorelbine Tartrate Hydrate | – | – | – | – | – | – | Max Effect [1]: 0.472; Max Effect Vero [1]: 0.256; IC50 ([1]; read-out: IC50): 3.2 µM; Max Effect HepG2 [2]: 0.788; IC50 ([2]; read-out: IC50 (μM) HepG2): 0.86 µM
O=C(c1ccc(OCCN2CCCCC2)cc1)c1c(-c2ccc(O)cc2)sc2cc(O)ccc12 [Raloxifene Hydrochloride] | 69.1 | – | – | – | – | 2.4 | –
O=c1cnn([C@@H]2O[C@H](CO)[C@@H](O)[C@H]2O)c(=O)[nH]1 [Agent 6-Azauridine, 6-Azauridine] | 80 | – | – | – | – | < 1 | –
COc1cc2c(cc1OC)[C@@H]1C(=O)c3ccc4c(c3O[C@@H]1CO2)C=CC(C)(C)O4 [Deguelin] | 41.8 | – | – | – | – | 0.5 | –
OCCN1CCN(CCCN2c3ccccc3Sc3ccc(C(F)(F)F)cc32)CC1 [Fluphenazine Hydrochloride] | 98.8 | 96.8 | 92 | – | – | – | –
CC(C)c1nc(CN(C)C(=O)N[C@H](C(=O)N[C@@H](Cc2ccccc2)C[C@H](O)[C@H](Cc2ccccc2)NC(=O)OCc2cncs2)C(C)C)cs1 [Ritonavir] | 48.5 | – | – | – | – | – | –
O=C1Nc2ccc(Cl)cc2[C@@](C#CC2CC2)(C(F)(F)F)O1 [Efavirenz] | 51.6 | 63.9 | 86 | 10 | 14 | 7.8 | –
Gramicidin | – | – | – | – | – | – | Max Effect [1]: 0.678
Nonoxynol-9 | – | – | – | – | – | – | Max Effect [1]: 0.535; IC50 ([1]; read-out: IC50): 8.7 µM

From US8475804B2 (priority 2009, dated 2013)
